From ChEMBL document CHEMBL5029191, “The Inhibitors of Protein Tyrosine Phosphatase Nonreceptor Type 2 (PTPN2) as Potential Enhancers of Cancer Immunotherapy and Type 1 (PTPN1) as Treatment of Metabolic Diseases” (ACS Med Chem Lett, 2022)

Experiments:
B16-F10 [1] = assay: Growth inhibition of […]-induced mouse B16-F10 cells at 33 uM relative to control; format: functional; details: read-out: GI
[2] = target: T1, Tyrosine-protein phosphatase non-receptor type 2 (Homo sapiens, UniProt P17706); assay: Inhibition of PTPN2 (unknown origin) by Mobility shift assay
T1 sequence (P17706 whole entry): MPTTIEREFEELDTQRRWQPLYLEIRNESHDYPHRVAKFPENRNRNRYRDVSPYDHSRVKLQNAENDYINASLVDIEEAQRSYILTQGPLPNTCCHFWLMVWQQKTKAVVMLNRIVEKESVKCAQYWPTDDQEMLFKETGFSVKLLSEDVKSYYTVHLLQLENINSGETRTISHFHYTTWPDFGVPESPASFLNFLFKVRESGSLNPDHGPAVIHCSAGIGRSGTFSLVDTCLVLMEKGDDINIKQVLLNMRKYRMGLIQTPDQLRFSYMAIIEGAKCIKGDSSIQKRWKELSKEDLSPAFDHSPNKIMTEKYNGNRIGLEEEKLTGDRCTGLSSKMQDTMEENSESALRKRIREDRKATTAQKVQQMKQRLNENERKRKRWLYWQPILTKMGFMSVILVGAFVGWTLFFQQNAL

[3] = target: T2, Tyrosine-protein phosphatase non-receptor type 1 (Homo sapiens, UniProt P18031); assay: Inhibition of PTPN1 (unknown origin) by Mobility shift assay
T2 sequence (P18031 whole entry): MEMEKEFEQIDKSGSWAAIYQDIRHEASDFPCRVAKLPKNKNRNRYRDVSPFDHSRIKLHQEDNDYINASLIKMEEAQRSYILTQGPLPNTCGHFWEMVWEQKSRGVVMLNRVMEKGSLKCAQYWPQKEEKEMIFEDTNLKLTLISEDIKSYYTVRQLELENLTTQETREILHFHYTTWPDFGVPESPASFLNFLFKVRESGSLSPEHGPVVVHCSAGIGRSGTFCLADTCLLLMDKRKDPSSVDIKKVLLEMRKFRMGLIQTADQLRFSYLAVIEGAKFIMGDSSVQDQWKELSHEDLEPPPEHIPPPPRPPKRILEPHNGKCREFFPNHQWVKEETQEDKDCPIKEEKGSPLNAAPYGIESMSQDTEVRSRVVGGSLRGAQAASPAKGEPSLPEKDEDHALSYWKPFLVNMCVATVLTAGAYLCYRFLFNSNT

B16-F10 [4] = assay: Growth inhibition of mouse B16-F10 cells at 33 uM relative to control; format: functional; details: read-out: GI

| Structure (SMILES) | inhibition of growth at 33 µM (B16-F10 [1]) | IC50 [2] | IC50 [3] | inhibition of growth at 33 µM (B16-F10 [4]) |
| --- | --- | --- | --- | --- |
| O=C1CN(c2c(O)cc3ccc(OCCC4CC4(F)F)cc3c2F)S(=O)(=O)N1 (centres undefined) | 60% | < 1 nM | < 1 nM | < 25% |
| O=C1CN(c2c(O)cc3ccc(-c4cnn(CC5CC5)c4)cc3c2F)S(=O)(=O)N1 | 60% | < 1 nM | < 1 nM | < 25% |
| O=C1CN(c2c(O)cc3ccc(OCC4CCCOC4)cc3c2F)S(=O)(=O)N1 (centres undefined) | 60% | < 1 nM | > 100 nM | < 25% |
| CC(C)CCS(=O)(=O)N1CC=C(c2ccc3cc(O)c(N4CC(=O)NS4(=O)=O)c(F)c3c2)C1 | 60% | < 1 nM | < 1 nM | < 25% |
| CC(C)(O)CCOc1ccc2c(F)c(N3CC(=O)NS3(=O)=O)c(O)cc2c1 | – | > 10 nM | > 100 nM | – |
| O=C1CN(c2c(O)cc3ccc(NCCC4CC4)cc3c2F)S(=O)(=O)N1 | > 90% | 1 nM | 1 nM | < 25% |
| CC(C)(C#N)CCOc1cc2c(F)c(N3CC(=O)NS3(=O)=O)c(O)cc2cc1O | – | < 1 nM | < 1 nM | – |
| CCS(=O)(=O)N1CC=C(c2ccc3cc(O)c(N4CC(=O)NS4(=O)=O)c(F)c3c2)C1 | > 90% | < 1 nM | < 1 nM | < 25% |
| O=C1CN(c2c(O)cc3ccc(C4CCN(S(=O)(=O)C5CC5)C4)cc3c2F)S(=O)(=O)N1 (centres undefined) | 60% | < 1 nM | 1 nM | < 25% |
| C[C@H](O)CCOc1ccc2cc(O)c(N3CC(=O)NS3(=O)=O)c(F)c2c1 | > 90% | < 1 nM | 1 nM | < 25% |
| CC(C)(C#N)CCOc1ccc2cc(O)c(N3CC(=O)NS3(=O)=O)c(F)c2c1 | 60% | < 1 nM | < 1 nM | < 25% |
| O=C1CN(c2c(O)cc3ccc(NCCN4CCC4)cc3c2F)S(=O)(=O)N1 | > 90% | 1 nM | > 100 nM | < 25% |
